Key:
[1] = tested on: lipoprotein lipase (LPL); experiment: LPL releasing activity (LPL amount in plasma by ELISA after tail vein administration); type: in vivo, Wister rat; details: rat, after 10 minutes
Source text: LPL releasing activity of the sugar chain compound such as oligosaccharide used in the agent of the present invention for promoting HGF production or a salt thereof can be assessed by administering the sugar chain compound or a salt thereof to a mouse or a rat, taking the plasma after a certain time, and measuring the amount of LPL in the plasma. The amount of LPL in the plasma can be determined by measuring LPL activity, or measuring the mass of LPL protein by ELISA.
For measuring LPL releasing activity, heparin fragments were administered to Wister rat (3-week old male) via the tail vein at 0.3 μg per 1 g of body weight and, after 10 minutes, blood was taken from axillary fossa venous plexus, and a LPL amount in the resulting plasma was measured by ELISA (Daiichi Pure Chemicals Co., Ltd). In high-molecular weight heparin, about 250 ng/mL LPL was released, but in low-molecular weight heparin (Fragmin, Kissei Pharmaceutical Co., Ltd.), released LPL amount was reduced to about 30% of the amount in the case of high-molecular weight heparin. […] In particular, in oligosaccharides not larger than octasaccharide, reduction in released LPL amount was remarkable.

[2] = tested on: fresh plasma taken from Wister rat; experiment: Anti-blood coagulation activity by activated partial thromboplastin time (APTT); type: biochemical; details: 9 μg/mL or 3 μg/mL
Source text: Anti-blood coagulation activity of the sugar chain compound such as oligosaccharide or a salt thereof used in the agent of the present invention for promoting HGF production can be assessed by measuring an activated partial thromboplastin time (APTT) or anti-factor Xa activity according to the known methods that have been used for measuring anti-blood coagulation activity of low-molecular-weight heparin.
Regarding the heparin fragments (oligosaccharides) obtained in Example 1, anti-blood coagulation activity and LPL releasing activity were measured. Anti-blood coagulation activity was assessed by comparing an activated partial thromboplastin time (APTT). APTT was measured using fresh plasma taken from Wister rat (male) and Data φ·APTT kit (Sysmex) which utilizes activation by ellagic acid. The heparin fragments were added to rat plasma at a concentration of 9 μg/mL or 3 μg/mL, and APTT values (second) were compared.

[3] = tested on: MRC-9 cells, human fetal lung fibroblasts; experiment: Activity to promote HGF production in MRC-9 cells (HGF in culture medium by ELISA); type: cell-based; details: 0 to 50 μg/ml
Protocol: An activity to promote HGF production of the agent of the present invention can be measured by comparing the HGF concentration in the culture medium of HGF-producing cells when the sugar chain compounds such as oligosaccharides or a salt thereof are added with that when they are not added, wherein the concentration of HGF can be measured by ELISA. As an HGF-producing cell, MRC-5 and MRC-9 cells, human fetal lung fibroblasts, can be used.
Activities to promote HGF production of the heparin fragments (oligosaccharides) obtained in Example 1 were measured by using MRC-9 cells, human fetal lung fibroblasts. The cells were cultured with heparin fragments(oligosaccharides) and amounts of HGF produced by the cell were analyzed. First, MRC-9 cells were seeded onto a 48 well plate at a density of 5×10^4 cells/cm^2, and cultured in a DMEM medium containing 10% FCS for one day. After removing the medium, the cells were washed twice with 0.5 mL of PBS, and the medium was exchanged with a DMEM medium containing 1% FCS. Thereafter, the culture was continued. At this time, the heparin fragments obtained in Example 1 were added to the medium at a final concentration of 1 μg/ml. After 24 hours, the culture supernatant was recovered, and an amount of HGF secreted into the culture medium was measured by the ELISA method. […]

O=C(O)C1=C[C@H](O)[C@@H](O)[C@H](O[C@H]2[C@H](O)[C@@H](NS(=O)(=O)O)C(O)O[C@@H]2CO)O1 (some centres unmarked) [2-Sac-NS, ΔUA-GlcNS]
LPL releasing activity (in words) [1]: not detected
anti-blood coagulation activity / extension of APTT (in words) [2]: not detected
activity to promote HGF production of disaccharide compounds (in words) [3]: higher activity to promote HGF production than 2-Sac-2S

NC1C(O)OC(CO)C(OC2OC(C(=O)O)=CC(O)C2OS(=O)(=O)O)C1O (stereo not drawn) [2-Sac-2S, ΔUA-2S-GlcN]
LPL releasing activity (in words) [1]: not detected
anti-blood coagulation activity / extension of APTT (in words) [2]: not detected

CC(=O)N[C@H]1C(O)O[C@H](COS(=O)(=O)O)[C@@H](O[C@@H]2OC(C(=O)O)=C[C@H](O)[C@H]2O)[C@@H]1O (some centres unmarked) [2-Sac-6S, ΔUA-GlcNAc-6S]
LPL releasing activity (in words) [1]: not detected
anti-blood coagulation activity / extension of APTT (in words) [2]: not detected
activity to promote HGF production of disaccharide compounds (in words) [3]: higher activity to promote HGF production than 2-Sac-2S
